Test results as given in patent US9861647B2 (Prelief Inc., priority 2007, dated 2018).
Entries after “also recorded” stand apart in the source; their conditions may differ.

How the values were obtained:
[1] = Tolerability in dogs: daily observations, body weights, blood chemistry; assay type: in vivo, Beagle dogs
Procedure: (§1) Ragweed sensitized beagle dogs (n=5) with preexisiting nasal and airway allergic responses were utilized in the animal study described in this Example. Dogs served as their own control and initially were treated with vehicle (sterile water) and then rested for 5 weeks prior to receiving the test compound. […] Based on the aerosol testing only 1.6 mg/dog could be delivered by inhalation during a 15 minute exposure (20 mg/ml solution). In addition, each dog received twice daily an intranasal instillation of 30 mg (2×375 μl of 20 mg/ml in each nostril) given within 30 minutes after the end of the inhalation exposures.
(§2) Vehicle (sterile water) was given twice daily by inhalation (15 minutes) followed by intranasal instillation of water (2×250 μl in each nostril). […] The test-article and the compound solution were prepared in the morning of each treatment day. Vehicle and test-article were administered by inhalation and intranasal instillation twice a day. Dosing of vehicle or test compound was achieved by utilizing a face mask connected to a jet nebulizer for inhalation delivery followed by intranasal instillation in both nostrils using an Accuspray device.
Blood sample was collected by placing a venous (cephalic or saphenous) catheter in the leg prior to anesthesia or by venipuncture (jugular) using a syringe or needle-vacutainer. […]

[2] = pH of the nebulizer solution; assay type: physicochemical; details: 20 mg/ml in sterile water
Procedure: as §2
Treatment occurred on Days 0 to 5 (only AM on Day 5). Vehicle and compound were delivered in the morning (8:15-9:10 am) and the afternoon (2:00-3:30 pm). On days when acoustic rhinometry procedures were performed (Days 0), the morning dosing occurred such that the procedures were performed within 1-6 h after dosing. The pH of the compound (as administered for nasal inhalation) was recorded prior to administration. As identified in the aerosol exposure the average pH of the nebulizer solution was 8.85.

[3] = test system: histamine, leukotriene C4/D4/E4, prostaglandin D2 and E2 in nasal lavage fluid; experiment: Mediators (histamine, leukotrienes, prostaglandins) in nasal lavage fluid after intranasal ragweed challenge; assay type: in vivo, Beagle dogs
Procedure: as §1
FIG. 1 summarizes the study design for characterizing the effects of CGP on rhinitis symptoms in ragweed sensitized Beagle dogs. The baseline nasal cavity volume was first measured 3 days (day −3) before each of the vehicle and CGP treatments. The dogs were treated with vehicle or CGP (day 0) twice daily with the target dosage described above. Three days into the vehicle or CGP treatment, nasal challenge with ragweed was performed (day 3). Treatment with vehicle or CGP continued during the assessment of rhinitis endpoints, e.g., total treatment duration=6 days (day 0-5) for each of the vehicle and CGP treatments. There were 5 weeks following the first intranasal RW challenge during the vehicle treatment and the CGP treatment.
as §2
Rhinitis assessments were conducted using one or more of the following tests. • Nasal cavity geometry (AcR) pre/post antigen challenge in both nares • 1. time 0 (just prior to RW instillation) • 2. at 15, 30, 45, 60, 75, 90 min, 24 h and 48 h post RW challenge • Nasal lavage of both nares at baseline and at 24 h (Day 4) and 48 h (Day 5) post RW instillation and only one side at 15, 30, 45 and 60 min post RW challenge (Day 3) • 1. Release of histamine, leukotrienes and prostaglandins in nasal lavage fluid baseline (prior to compound or RW treatment/challenge), 15, 30, 45, 60 min and 24 h post RW instillation • 2. Nasal lavage cells from the baseline (Day-3), 24 h (Day 4) and 48 h (Day 5) hour lavage were used for determination of inflammatory cell differentials • 3. Excess nasal lavage fluid was frozen for analysis of cytokines. • Cardiovascular readouts (heart rate, O2 saturation, body temperature) throughout nasal congestion measurement.
While under anesthesia a flexible plastic catheter was inserted several centimeters into the dog's nare. The nare was washed with a phosphate buffered saline solution (PBS; 3×5 ml for collection of cells [baseline, 24 and 48 h post RW challenge]; 1×5 ml for collection of fluid for mediators [15, 30, 45, and 60 minutes post RW challenge]).
Total nasal cells were determined using an automatic cell counter. Cells were spun onto slides by cytocentrifugation and stained with a modified Wright-Giemsa stain. At least four hundred inflammatory cells (or less if applicable) were counted and the percentage of specific cell types determined for each animal (slides in duplicates, 200 cells per slide). The first lavage fluid sample (after centrifugation) was frozen separately for mediator analysis. Mediator analysis for histamine, leukotrienes, and prostaglandins were performed according to the kit manufacturer instructions (Immunotech—Beckman Coulter Company #IM2015, Neogen Corporation #406410, Cayman Chemical Company: PGE2—#514010, PGD2—#512011, respectively). […]

[4] = before and after ragweed challenge, vs vehicle, n=5, One Way Anova, Dunnett's posttest

calcium glycerophosphate
daily observations, adverse health effects ([1]; dog, in vivo): No adverse health effects were found
tolerability ([1]; dogs, BID inhalation + intranasal instillation, Days 0 to 5): well tolerated
average pH of the nebulizer solution [2]: 8.85
histamine levels in nasal lavage fluid [3, 4]: no statistical significance was reached
levels of leukotriene C4/D4/E4 in nasal lavage fluid [3, 4]: no statistical significance was reached
prostaglandin D2 levels in nasal lavage fluid [3, 4]: no statistical significance was reached
prostaglandin E2 levels in nasal lavage fluid [3, 4]: Levels of PGE2 decreased following ragweed challenge; also recorded: no statistical significance was reached
histamine, leukotriene and prostaglandin D2 and E2 levels in nasal lavage fluid ([3]; compound vs vehicle treatment, statistical significance not reached): partially altered
prostaglandin E2 levels normalized to baseline (T0 = 100%) ([3]; vs vehicle, Two Way Anova p<0.009, no significance at individual time points): a greater reduction in PGE2 levels following RW challenge; also recorded: significantly attenuated compared to vehicle treatment
AUC of histamine levels between 0 and 60 min ([3]; vs vehicle, n=5): histamine levels decreased in two of the 5 dogs, no statistical significance was reached
AUC of prostaglandin D2 levels between 0 and 60 min ([3]; vs vehicle, n=5): prostaglandin D2 levels decreased in three dogs and increased in two dogs and no statistical significance was reached
